Assay [1] relates to genotype 3a (S52) stable HCV replicon in Huh-7-derived cells. Nature of the assay: Stable subgenomic HCV replicon EC50, genotype 3a (Renilla luciferase). It is filed as cell-based, hepatitis C virus. The following applies: 72 h, read-out: EC50 3A RLUC. (In antiviral work, replicon cells carry a viral genome segment that copies itself.)
Assay [2] deals with genotype 1a NS3/4a protease inhibitor resistant variant R155K transient HCV replicon in Huh-7-derived cells. Nature of the assay: Transient-transfected HCV replicon EC50, genotype 1a R155K. It is filed as cell-based, hepatitis C virus. The following applies: 72 h.
Assay [3] deals with genotype 1a (H77) stable HCV replicon in Huh-7-derived cells. The assay can be described thus: Stable subgenomic HCV replicon EC50, genotype 1a (Renilla luciferase). It is filed as cell-based, hepatitis C virus. To be noted: stable replicon genotype 1a, 72 h, read-out: EC50 1A RLUC. The method in brief: (§1)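 Compounds, three-fold diluted, were applied to Huh-7-derived cells harbouring luciferase replicons (genotype 1a H77, 1b Con1, 2a JFH-1, 4a ED43, with strain-specific adaptive mutations). Seventy-two hours later, intracellular replication was gauged by Renilla luciferase activity and EC50 derived by regression.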

Assay [4] has as its system genotype 2a (JFH-1) stable HCV replicon in Huh-7-derived cells. Nature of the assay: Stable subgenomic HCV replicon EC50, genotype 2a (Renilla luciferase). Type of assay: cell-based, hepatitis C virus. To be noted: stable replicon genotype 2a, 72 h, read-out: EC50 2A RLUC. The method in brief: as §1
The test system of assay [5] is genotype 1b (Con1) wild type transient HCV replicon in Huh-7-derived cells. The assay can be described thus: Transient-transfected HCV replicon EC50, genotype 1b wild type. It is filed as cell-based, hepatitis C virus. To be noted: 72 h, transient-transfected replicon genotype 1b wild type, read-out: EC50 1B WT.
Assay [6] addresses HCV NS3 protease domain genotype 1b (Hepatitis C virus genotype 1b (isolate Con1), UniProt Q9WMX2, E1202G). The assay can be described thus: Ki determination, NS3 protease genotype 1b (fluorogenic depsipeptide substrate). To be noted: 50 pM enzyme, NS4A peptide. Type of assay: biochemical. As for the experimental part: Purified NS3 protease domain (amino acids 1-181) of the genotype 1b and 3a virus were generated as above.
Reactions were run at room temperature in buffer consisting of 50 mM HEPES, 40% glycerol, 0.05% Triton X-100, 10 mM DTT, and 10% DMSO. The final assay solutions contained 50 pM NS3 genotype 1 b protease or 200 pM genotype 3a protease, 20 μM NS4A peptide, and 4 μM substrate (genotype 1b) or 2 μM substrate (genotype 3a). Inhibitor concentrations varied from 100 nM to 5 pM in 3-fold dilutions, and no-inhibitor controls were included.
Compound dilutions were made in DMSO at 20× final concentration. Reaction mixtures were prepared in 96-well assay plates. A solution of enzyme and NS4A peptide in assay buffer (25 μL volume with both reagents at 4× final concentration) was mixed with 45 μL assay buffer and 5 μL of either inhibitor or DMSO, and pre-incubated at room temperature for 1 hour. The reaction was started by addition of 25 μL substrate solution at 4× final concentration. Plates were mixed vigorously for 5-10 seconds and reactions were allowed to proceed for 90 minutes, fluorescence was measured every 30 s between 90 and 120 minutes reaction time using a Tecan InfiniTe M1000 or PerkinElmer Envision multimode plate reader with an excitation wavelength of 340 nm and an emission wavelength of 490 nm.
To determine the Ki, rates were plotted as a function of inhibitor concentration, and the data were fit with equation 1 (Morrison, J. F., Biochimica et Biophysica Acta 1969, 185, 269-286) to calculate Ki^app using GraphPad Prism 5. […] Ki was calculated from Ki^app/(1+[[S]/Km]).

In assay [7] the test system is genotype 1b NS3/4a protease inhibitor resistant variant D168A transient HCV replicon in Huh-7-derived cells. Nature of the assay: Transient-transfected HCV replicon EC50, genotype 1b D168A. Type of assay: cell-based, hepatitis C virus. The following applies: 72 h.
In assay [8] the test system is genotype 1a (H77) wild type transient HCV replicon in Huh-7-derived cells. Nature of the assay: Transient-transfected HCV replicon EC50, genotype 1a wild type. Type of assay: cell-based, hepatitis C virus. To be noted: 72 h, transient-transfected replicon genotype 1a wild type, read-out: EC50 1A WT.
The test system of assay [9] is genotype 4a (ED43) stable HCV replicon in Huh-7-derived cells. Nature of the assay: Stable subgenomic HCV replicon EC50, genotype 4a (Renilla luciferase). Type of assay: cell-based, hepatitis C virus. To be noted: 72 h, read-out: EC50 4A RLUC. The gist of the method: as §1
The target in assay [10] is HCV NS3 protease domain genotype 3a (Hepatitis C virus genotype 3a, UniProt Q81258). The assay can be described thus: Ki determination, NS3 protease genotype 3a (fluorogenic depsipeptide substrate). The following applies: 200 pM enzyme, NS4A peptide. Type of assay: biochemical. The gist of the method: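 The NS3 protease domain (aa 1-181) with 20 μM NS4A peptide was used at 50 pM with 4 μM substrate (1b) or at 200 pM with 2 μM substrate (3a). Inhibitors (100 nM-5 pM) were pre-incubated 1 h at room temperature in HEPES/glycerol/DTT buffer with 10% DMSO. Steady-state rates (90-120 min) gave Ki via the Morrison equation, corrected for active enzyme and [S]/Km.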

Assay [11] has as its system genotype 1b (Con1) stable HCV replicon in Huh-7-derived cells. The assay can be described thus: Stable subgenomic HCV replicon EC50, genotype 1b (Renilla luciferase). Type of assay: cell-based, hepatitis C virus. To be noted: stable replicon genotype 1b, 72 h, read-out: EC50 1B RLUC. The method in brief: as §1
Assay [12] has as its system genotype 3a (S52) wild type transient HCV replicon in Huh-7-derived cells. The assay can be described thus: Transient-transfected HCV replicon EC50, genotype 3a wild type. To be noted: transient-transfected replicon genotype 3a wild type, 72 h, read-out: EC50 3A WT. It is filed as cell-based, hepatitis C virus.
[13] abbreviates: Hepatitis C virus, read-out: EC50 1A R155K, transient-transfected replicon genotype 1a R155K resistant variant, 72 h.
Where [14] appears, read: Hepatitis C virus, read-out: EC50 1B D168A, transient-transfected replicon genotype 1b D168A resistant variant, 72 h.

pEC50, pKi: −log10 of the molar value. Read-outs that look alike come from different tables or passages of the source.

Chain of HCV NS3 protease domain genotype 3a (Q81258 whole entry, looked up, the tested form may be a part): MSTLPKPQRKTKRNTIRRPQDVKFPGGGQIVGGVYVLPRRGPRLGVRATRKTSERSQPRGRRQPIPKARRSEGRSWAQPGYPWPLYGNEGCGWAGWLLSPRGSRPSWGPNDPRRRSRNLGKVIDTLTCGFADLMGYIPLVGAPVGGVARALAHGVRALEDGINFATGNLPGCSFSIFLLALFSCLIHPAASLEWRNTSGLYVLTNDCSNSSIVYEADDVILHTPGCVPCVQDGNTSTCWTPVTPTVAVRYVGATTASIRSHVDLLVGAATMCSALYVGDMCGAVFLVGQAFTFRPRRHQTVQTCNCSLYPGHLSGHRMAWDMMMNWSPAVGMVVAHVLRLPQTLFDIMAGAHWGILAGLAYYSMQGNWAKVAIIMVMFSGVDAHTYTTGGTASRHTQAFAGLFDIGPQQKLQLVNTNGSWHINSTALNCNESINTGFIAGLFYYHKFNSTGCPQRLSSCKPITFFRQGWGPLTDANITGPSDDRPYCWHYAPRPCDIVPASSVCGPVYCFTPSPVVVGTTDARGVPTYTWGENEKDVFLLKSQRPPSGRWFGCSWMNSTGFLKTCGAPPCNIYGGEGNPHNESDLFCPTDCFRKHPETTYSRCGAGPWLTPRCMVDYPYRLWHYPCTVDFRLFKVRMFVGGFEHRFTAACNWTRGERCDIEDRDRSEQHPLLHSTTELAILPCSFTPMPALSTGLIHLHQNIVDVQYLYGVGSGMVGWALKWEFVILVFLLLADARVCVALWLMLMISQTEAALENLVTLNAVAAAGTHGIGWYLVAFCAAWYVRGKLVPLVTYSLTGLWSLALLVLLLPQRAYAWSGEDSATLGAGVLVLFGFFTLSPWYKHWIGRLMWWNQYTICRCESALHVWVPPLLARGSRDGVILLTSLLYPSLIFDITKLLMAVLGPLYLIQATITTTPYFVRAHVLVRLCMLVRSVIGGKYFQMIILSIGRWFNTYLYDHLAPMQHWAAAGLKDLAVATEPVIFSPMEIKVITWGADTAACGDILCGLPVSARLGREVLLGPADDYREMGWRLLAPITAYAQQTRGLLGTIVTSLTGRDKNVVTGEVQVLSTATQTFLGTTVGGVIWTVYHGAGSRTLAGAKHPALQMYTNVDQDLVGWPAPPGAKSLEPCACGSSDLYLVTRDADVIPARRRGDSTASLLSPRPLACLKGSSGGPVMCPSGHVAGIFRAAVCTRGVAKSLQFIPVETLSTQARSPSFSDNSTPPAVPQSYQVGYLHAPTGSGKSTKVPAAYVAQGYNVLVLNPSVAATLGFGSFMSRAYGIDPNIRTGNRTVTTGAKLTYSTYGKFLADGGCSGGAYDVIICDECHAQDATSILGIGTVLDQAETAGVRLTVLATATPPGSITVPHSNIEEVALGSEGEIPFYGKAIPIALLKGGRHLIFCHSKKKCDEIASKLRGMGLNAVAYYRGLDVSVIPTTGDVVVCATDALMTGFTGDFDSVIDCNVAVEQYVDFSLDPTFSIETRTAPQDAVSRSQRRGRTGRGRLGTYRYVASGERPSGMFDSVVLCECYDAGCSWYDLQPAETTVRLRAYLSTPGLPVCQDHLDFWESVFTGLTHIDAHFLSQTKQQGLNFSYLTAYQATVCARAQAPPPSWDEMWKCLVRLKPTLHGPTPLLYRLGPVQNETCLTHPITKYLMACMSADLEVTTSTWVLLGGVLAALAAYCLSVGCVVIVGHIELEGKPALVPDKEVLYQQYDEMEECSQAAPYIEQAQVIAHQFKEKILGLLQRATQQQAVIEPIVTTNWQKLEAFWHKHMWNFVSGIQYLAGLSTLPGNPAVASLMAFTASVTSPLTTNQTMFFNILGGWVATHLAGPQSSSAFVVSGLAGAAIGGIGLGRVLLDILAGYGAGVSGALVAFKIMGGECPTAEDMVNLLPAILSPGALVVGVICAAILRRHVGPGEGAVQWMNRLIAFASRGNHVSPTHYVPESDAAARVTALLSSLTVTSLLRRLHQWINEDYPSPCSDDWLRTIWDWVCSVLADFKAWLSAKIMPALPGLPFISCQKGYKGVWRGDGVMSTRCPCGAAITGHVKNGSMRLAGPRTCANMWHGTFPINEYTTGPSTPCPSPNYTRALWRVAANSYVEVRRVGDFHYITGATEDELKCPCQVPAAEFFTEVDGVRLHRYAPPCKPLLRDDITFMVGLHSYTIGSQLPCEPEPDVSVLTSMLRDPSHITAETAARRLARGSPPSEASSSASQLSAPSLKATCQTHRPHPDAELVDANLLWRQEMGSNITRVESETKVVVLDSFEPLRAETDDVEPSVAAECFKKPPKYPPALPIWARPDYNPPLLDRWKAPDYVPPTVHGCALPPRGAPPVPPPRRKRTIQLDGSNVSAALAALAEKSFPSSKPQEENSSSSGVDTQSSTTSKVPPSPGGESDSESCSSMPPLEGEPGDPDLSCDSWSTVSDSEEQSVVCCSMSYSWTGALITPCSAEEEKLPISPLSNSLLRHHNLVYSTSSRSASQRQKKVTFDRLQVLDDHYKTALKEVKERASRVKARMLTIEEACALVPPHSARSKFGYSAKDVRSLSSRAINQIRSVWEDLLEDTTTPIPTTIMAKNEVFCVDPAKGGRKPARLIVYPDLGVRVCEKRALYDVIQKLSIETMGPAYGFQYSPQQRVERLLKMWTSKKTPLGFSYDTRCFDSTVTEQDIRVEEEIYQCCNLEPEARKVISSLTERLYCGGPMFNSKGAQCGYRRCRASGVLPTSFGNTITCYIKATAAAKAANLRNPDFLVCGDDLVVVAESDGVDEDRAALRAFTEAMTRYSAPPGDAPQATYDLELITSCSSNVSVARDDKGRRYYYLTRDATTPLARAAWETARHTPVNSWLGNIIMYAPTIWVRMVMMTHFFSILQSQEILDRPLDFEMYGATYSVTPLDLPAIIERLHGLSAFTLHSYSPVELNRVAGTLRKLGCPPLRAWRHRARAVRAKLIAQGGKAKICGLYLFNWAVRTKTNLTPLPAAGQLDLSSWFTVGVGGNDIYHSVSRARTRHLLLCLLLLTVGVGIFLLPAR
Chain of HCV NS3 protease domain genotype 1b (Q9WMX2 1027-1208 E1202G): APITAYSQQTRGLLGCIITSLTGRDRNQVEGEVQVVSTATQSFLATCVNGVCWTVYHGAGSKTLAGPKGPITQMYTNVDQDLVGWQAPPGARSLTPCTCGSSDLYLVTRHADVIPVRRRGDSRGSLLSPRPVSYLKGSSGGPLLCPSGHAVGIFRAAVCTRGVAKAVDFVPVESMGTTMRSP

The pEC50 is the negative decadic logarithm of the EC50, by convention in mol/L. Broadly, the pKi is the Ki on a negative log10 scale, so that one unit is a factor of ten. A higher pKi goes with a low Ki. On to `COc1ccc2nc3c(nc2c1)O[C@H]1CN(C(=O)[C@H](C(C)(C)C)NC(=O)O[C@@H]2[C@H]4CC[C@H](C4)[C@H]2CCCCC3)[C@H](C(=O)N[C@]2(C(=O)NS(=O)(=O)C3CC3)C[C@H]2C(F)F)[C@@H]1C` [Example 26, (1R,4S,4aR,8S,11S,12S,13R,25aR)-8-tert-butyl-N-[(1R,2R)-1-[(cyclopropylsulfonyl)carbamoyl]-2-(difluoromethyl)cyclopropyl]-17-methoxy-12-methyl-6,9-dioxo-2,3,4,4a,6,7,8,9,12,13,21,22,23,24,25,25a-hexadecahydro-1H,11H-1,4:10,13-dimethanoquinoxalino[2,3-k][1,10,3,6]benzodioxadiazacyclononadecine-11-carboxamide], for which the pEC50 in assay [1] (Hepatitis C virus) is 6.53; in [2] (setting [13]), 7.92; in [3] (Hepatitis C virus), 8.20; in assay [4] (Hepatitis C virus), 7.92; in assay [5] (Hepatitis C virus), 8.72; in assay [7] (setting [14]), 6.96. Further, the results for the pEC50 in assay [8] (Hepatitis C virus), in assay [9] (Hepatitis C virus) and in assay [11] (Hepatitis C virus) were 8.44, 8.22 and 8.37, respectively. The pKi in assay [6] was 10.30; in assay [10], 9.77.
On to `COc1ccc2nc3c(nc2c1)O[C@H]1CN(C(=O)[C@H](C(C)(C)C)NC(=O)O[C@@H]2CCN(C(C)=O)C2CCCCC3)[C@H](C(=O)N[C@]2(C(=O)NS(=O)(=O)C3(C)CC3)C[C@H]2C(F)F)[C@@H]1C` (stereo partly drawn) [Example 80, (3aR,7S,10S,11S,12R)-1-acetyl-7-tert-butyl-N-[(1R,2R)-2-(difluoromethyl)-1-{[(1-methylcyclopropyl)sulfonyl]carbamoyl}cyclopropyl]-16-methoxy-11-methyl-5,8-dioxo-1,2,3,3a,5,6,7,8,11,12,20,21,22,23,24,24a-hexadecahydro-10H-9,12-methanopyrrolo[2′,3′:18,19][1,10,3,6]dioxadiazacyclononadecino[11,12-b]quinoxaline-10-carboxamide], for which the pEC50 was 4.35 in assay [1] (Hepatitis C virus); 5.54 in assay [2] (setting [13]); 5.95 in [3] (Hepatitis C virus); 6.13 in [4] (Hepatitis C virus); 7.28 in assay [5] (Hepatitis C virus); 6.35 in assay [7] (setting [14]). The pEC50 in assay [8] (Hepatitis C virus) is 6.39; in [9] (Hepatitis C virus), 5.93; in assay [11] (Hepatitis C virus), 6.46. The negative logarithm of the Ki (pKi) is 9.31 in assay [6] and 7.89 in assay [10].
Consider “(1aR,5S,8S,9S,10R,22aR)-5-tert-butyl-14-chloro-N-[(1R,2R)-2-(difluoromethyl)-1-{[(1-methylcyclopropyl)sulfonyl]carbamoyl}cyclopropyl]-18,18-difluoro-9-methyl-3,6-dioxo-1,1a,3,4,5,6,9,10,18,19,20,21,22,22a-tetradecahydro-8H-7,10-methanocyclopropa[18,19][3,6]dioxadiazacyclononadecino[11,12-b]quinoxaline-8-carboxamide [Example 88]”, for which the pEC50 was 6.98 in assay [1] (stable replicon genotype 3a, Renilla luciferase); 7.85 in assay [2] (transient-transfected replicon genotype 1a R155K resistant variant, read-out: EC50 1A R155K); 8.03 in assay [3]; 8.57 in assay [4]; 7.46 in assay [12]; 8.26 in assay [5]. Moreover, the pEC50 in assay [7] (transient-transfected replicon genotype 1b D168A resistant variant, read-out: EC50 1B D168A) was 7.62; in assay [8] it was 8.30; in assay [9] (stable replicon genotype 4a, Renilla luciferase), 8.39; in assay [11], 8.34. Besides, the pKi in assay [10] was 9.54.
Take `COc1ccc2nc3c(nc2c1)O[C@H]1CN(C(=O)[C@H](C(C)(C)C)NC(=O)O[C@@H]2CC4CC(C4)[C@H]2CCCCC3)[C@H](C(=O)N[C@]2(C(=O)NS(=O)(=O)C3CC3)C[C@H]2C(F)F)[C@@H]1C` [Example 71, (4aR,8S,11S,12S,13R,25aR)-8-tert-butyl-N-[(1R,2R)-1-[(cyclopropylsulfonyl)carbamoyl]-2-(difluoromethyl)cyclopropyl]-17-methoxy-12-methyl-6,9-dioxo-2,3,4,4a,6,7,8,9,12,13,21,22,23,24,25,25a-hexadecahydro-1H,11H-1,3,10,13-dimethanoquinoxalino[2,3-k][1,10,3,6]benzodioxadiazacyclononadecine-11-carboxamide]: the pEC50 in assay [1] (Hepatitis C virus) is 6.80; in [2] (setting [13]), 7.52; in [3] (Hepatitis C virus), 8.19; in assay [4] (Hepatitis C virus), 7.64; in assay [12] (Hepatitis C virus) it was 7.31; in assay [5] (Hepatitis C virus) it was 8.42. Further, the pEC50 in assay [7] (setting [14]) was 7.18; in assay [8] (Hepatitis C virus), 8.04; in assay [9] (Hepatitis C virus), 8.28; in assay [11] (Hepatitis C virus), 8.28. Further, the pKi in assay [10] was 9.85.
Regarding `CC[C@@H]1[C@@H]2CN(C(=O)[C@H](C(C)(C)C)NC(=O)O[C@]3(C)CCC[C@H]3CCCCCc3nc4ccc(OC)cc4nc3O2)[C@@H]1C(=O)N[C@]1(C(=O)NS(=O)(=O)C2(C)CC2)C[C@H]1C(F)F` [Example 39], the pEC50 in assay [1] (Hepatitis C virus) is 6.49; in [2] (setting [13]) it was 7.20; in [3] (Hepatitis C virus), 7.47; in assay [4] (Hepatitis C virus), 7.39; in [12] (Hepatitis C virus), 7.05; in [5] (Hepatitis C virus), 7.80. Also, the pEC50 was 6.98 in assay [7] (setting [14]), 7.64 in assay [8] (Hepatitis C virus), 7.59 in assay [9] (Hepatitis C virus) and 7.41 in assay [11] (Hepatitis C virus). Besides, in assay [10], the pKi was 9.70.
With `COc1ccc2nc3c(nc2c1)O[C@H]1CN(C(=O)[C@H](C(C)(C)C)NC(=O)O[C@]2(C)C[C@H]2CCCCC3)[C@H](C(=O)N[C@]2(C(=O)NS(=O)(=O)C3(C)CC3)C[C@H]2C(F)F)[C@@H]1C` [Example 44, (1aR,5S,8S,9S,10R,22aR)-5-tert-butyl-N-[(1R,2R)-2-(difluoromethyl)-1-{[(1-methylcyclopropyl)sulfonyl]carbamoyl}cyclopropyl]-14-methoxy-1a,9-dimethyl-3,6-dioxo-1,1a,3,4,5,6,9,10,18,19,20,21,22,22a-tetradecahydro-8H-7,10-methanocyclopropa[18,19][1,10,3,6]dioxadiazacyclononadecino[11,12-b]quinoxaline-8-carboxamide], the negative-log EC50 (pEC50) is 7.28 in [1] (Hepatitis C virus); 8.40 in assay [2] (setting [13]); 8.51 in assay [3] (Hepatitis C virus); 8.54 in assay [4] (Hepatitis C virus); 8.15 in [12] (Hepatitis C virus); 8.85 in assay [5] (Hepatitis C virus). Besides, the pEC50 in [7] (setting [14]) was 7.82; in [8] (Hepatitis C virus) it was 8.62; in [9] (Hepatitis C virus), 8.66; in assay [11] (Hepatitis C virus), 8.68. In [10], this compound gave a pKi of 10.10.

The values are drawn from patent US10335409B2 (priority 2012, dated 2019).
